Source: PubChem BioAssay AID2060327 (Molecular Pharmacology Branch, DTP, NCI, 2025)

Tested on: PC-3 multi-cell spheroids, viability
Assay: Anticancer human tumor PC-3 cell line growth inhibition [IpAb];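 further: spheroids exposed to compounds for 7 days before readout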;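 on viability, T/C: 100% = DMSO vehicle control wells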
Conditions: for IC50: curve of first compound; for viability, T/C: stronger effect = lower value
Procedure, shortened: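 Combinations with ipatasertib or abemaciclib were tested on tumour spheroids holding HUVEC (25%) and MSC (15%) alongside 60% malignant cells. Top concentration was at or near clinical Cmax (10 microM if undefined), descending in half-log steps.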

For `CC(=O)c1c(C)c2cnc(Nc3ccc(N4CCNCC4)cn3)nc2n(C2CCCC2)c1=O` + CCN1CCN(Cc2ccc(Nc3ncc(F)c(-c4cc(F)c5nc(C)n(C(C)C)c5c4)n3)nc2)CC1, the IC50 (second compound 0.01 µM) was > 0.3 µM, the IC50 (second compound 0.0316 µM) was > 0.3 µM and the IC50 (second compound 0.1 µM) was > 0.3 µM. The IC50 (second compound 0.316 µM) was > 0.3 µM, the IC50 (second compound 1 µM) was > 0.3 µM and the viability, T/C (second compound 0.01 µM, first compound 0.000949 µM) was 79.2%. For the same molecule, the viability, T/C (second compound 0.01 µM, first compound 0.003 µM) was 68.6%, the viability, T/C (second compound 0.01 µM, first compound 0.00949 µM) was 70.7% and the viability, T/C (second compound 0.01 µM, first compound 0.03 µM) was 61.7%. It also gave a viability, T/C (second compound 0.01 µM, first compound 0.0949 µM) of 62%, a viability, T/C (second compound 0.01 µM, first compound 0.3 µM) of 56.6% and a viability, T/C (second compound 0.0316 µM, first compound 0.000949 µM) of 49.9%. It also gave a viability, T/C (second compound 0.0316 µM, first compound 0.003 µM) of 57.3%, a viability, T/C (second compound 0.0316 µM, first compound 0.00949 µM) of 53.7% and a viability, T/C (second compound 0.0316 µM, first compound 0.03 µM) of 53.7%. It also gave a viability, T/C (second compound 0.0316 µM, first compound 0.0949 µM) of 56.4%, a viability, T/C (second compound 0.0316 µM, first compound 0.3 µM) of 59.8% and a viability, T/C (second compound 0.1 µM, first compound 0.000949 µM) of 53.5%. The viability, T/C (second compound 0.1 µM, first compound 0.003 µM) was 53.9%, the viability, T/C (second compound 0.1 µM, first compound 0.00949 µM) was 52.9% and the viability, T/C (second compound 0.1 µM, first compound 0.03 µM) was 53.7%. It also gave a viability, T/C (second compound 0.1 µM, first compound 0.0949 µM) of 57.9%, a viability, T/C (second compound 0.1 µM, first compound 0.3 µM) of 55.4% and a viability, T/C (second compound 0.316 µM, first compound 0.000949 µM) of 60%. It also gave a viability, T/C (second compound 0.316 µM, first compound 0.003 µM) of 56.8%, a viability, T/C (second compound 0.316 µM, first compound 0.00949 µM) of 63.1% and a viability, T/C (second compound 0.316 µM, first compound 0.03 µM) of 64.9%. The viability, T/C (second compound 0.316 µM, first compound 0.0949 µM) was 65.5%, the viability, T/C (second compound 0.316 µM, first compound 0.3 µM) was 60.9% and the viability, T/C (second compound 1 µM, first compound 0.000949 µM) was 58.1%. The viability, T/C (second compound 1 µM, first compound 0.003 µM) was 60.2%, the viability, T/C (second compound 1 µM, first compound 0.00949 µM) was 57.3% and the viability, T/C (second compound 1 µM, first compound 0.03 µM) was 57.5%. For the same molecule, the viability, T/C (second compound 1 µM, first compound 0.0949 µM) was 51.2% and the viability, T/C (second compound 1 µM, first compound 0.3 µM) was 55.1%.
